Laboratory results as given in paper PMC3161034 (BMC Cancer, 2011).
Where two headings read alike, the source gives them in different places. Marks after values point to notes of the source that are not given here.

How the values were obtained:
[1] = system: patients with solid tumors; assay: Adverse events graded by CTCAE version 3.0, relatedness by investigator; format: in vivo, human
Procedure: Cohort enrollment could be expanded to ensure that at least 6 evaluable patients were enrolled or in the event of unresolved safety, pharmacokinetic, or other concerns. The overall sample size could be further increased if additional dose cohorts were considered justified based on the results from the dose-escalation portion of the study. For continuous endpoints, the mean, standard error or standard deviation (SD); median; 25th and 75th percentiles; and minimum and maximum were calculated. For discrete data, the frequency and percent distributions were calculated. No formal comparisons between cohorts were performed. The data were analyzed using SAS software version 8.2 (SAS Institute, Cary, NC). […] The safety analysis set included all patients who received at least 1 dose of study therapy.

[2] = Motesanib plasma pharmacokinetics (LC-MS/MS, noncompartmental); set-up: species or system human; conditions: in vivo; for half-life / Tmax / AUC(0-t) / concentration at 24 h / Cmax: human; for AUC(0-t) / concentration at 24 h / Cmax: week 3; for AUC(0-t): read-out: AUC0–24, median; for concentration at 24 h: read-out: C24, median; for Cmax: read-out: Cmax, median
Procedure: Plasma concentrations of motesanib were analyzed using a validated liquid chromatography/tandem mass spectrometry (LC-MS/MS) method with a lower limit of quantitation (LLOQ) of 0.2 ng/mL (Cedra Corp., Austin, TX).
Pharmacokinetic parameter estimates were calculated according to standard noncompartmental methods using WinNonlin software (version 5.1.1; Pharsight Corporation, Mountain View, CA) and summarized by dose level. […] For the BID cohort, AUC0—24 values for motesanib were determined by 2 × AUC0—12. The terminal elimination rate constant (λZ) was determined by linear regression of the natural logarithms of plasma concentrations versus time during the terminal phase; the corresponding t1/2 was calculated.

[3] = system: patients with solid tumours; set-up: method as in PMID 18971935; conditions: in combination with gemcitabine; cited from earlier work
[4] = motesanib 50 mg QD + gemcitabine + erlotinib 100 mg QD, n = 7
[5] = motesanib 75 mg BID + gemcitabine + erlotinib 100 mg QD, n = 9
[6] = motesanib 100 mg QD + erlotinib 150 mg QD, n = 7
[7] = motesanib 100 mg QD + gemcitabine + erlotinib 100 mg QD, n = 8
[8] = 125 mg QD motesanib + 100 mg QD erlotinib + gemcitabine
[9] = 125 mg QD motesanib + 150 mg QD erlotinib

CC1(C)CNc2cc(NC(=O)c3cccnc3NCc3ccncc3)ccc21 [motesanib]
Patients with grade ≥ 3 motesanib-related adverse events ([1]; all motesanib cohorts): Twenty-three
Grade 5 motesanib-related adverse events ([1]; human, in vivo): No grade 5 motesanib-related adverse events occurred
Motesanib-related diarrhea ([1]; human, in vivo): 19 n
Motesanib-related fatigue ([1]; human, in vivo): 12 n
Motesanib-related nausea ([1]; human, in vivo): 18 n
Motesanib-related vomiting ([1]; human, in vivo): 13 n
Patients discontinuing treatment with the drug because of adverse events ([1]; human, in vivo): 9 n
Serious motesanib-related deep vein thrombosis ([1]; human, in vivo): 2 n
Serious motesanib-related diarrhea ([1]; human, in vivo): 2 n
Serious motesanib-related nausea ([1]; human, in vivo): 5 n
Serious motesanib-related pulmonary embolism ([1]; human, in vivo): 2 n
Serious motesanib-related tumor necrosis ([1]; human, in vivo): 2 n
Serious motesanib-related vomiting ([1]; human, in vivo): 5 n
Abnormal liver function test, grade 3 (motesanib-related) [1, 4]: 0 n
Adverse events of grade 3, n (motesanib-related) [1, 4]: 0 n
Adverse events of grade 4, n (Pulmonary) [1, 4]: 1 n
Any adverse event, n (motesanib-related) [1, 4]: 3 n
Cardiac toxicity (all grade 3) [1, 4]: 0 n
Deep vein thrombosis, grade 3 (motesanib-related) [1, 4]: 0 n
Diarrhea, grade 3 (motesanib-related) [1, 4]: 0 n
Fatigue, grade 3 (motesanib-related) [1, 4]: 0 n
Febrile neutropenia, grade 4 (motesanib-related) [1, 4]: 1 n
Gallbladder toxicity [1, 4]: 0 n
Gallbladder toxicity, Grade 3 [1, 4]: 0 n
Hemorrhagic events [1, 4]: 0 n
Hemorrhagic events, Grade 3 [1, 4]: 0 n
Hypertension, highest (worst) grade: Grade 3 [1, 4]: 0 n
Nausea, grade 3 (motesanib-related) [1, 4]: 0 n
Neutropenia, grade 3 (motesanib-related) [1, 4]: 0 n
Neutropenia, grade 4 (motesanib-related) [1, 4]: 0 n
Pulmonary embolism, grade 4 (motesanib-related) [1, 4]: 0 n
Thrombophlebitis (all grade 3) [1, 4]: 0 n
Tumor necrosis, grade 3 (motesanib-related) [1, 4]: 0 n
Vomiting, grade 3 (motesanib-related) [1, 4]: 0 n
Abnormal liver function test, grade 3 (motesanib-related) [1, 5]: 0 n
Adverse events of grade 3, n (motesanib-related) [1, 5]: 3 n
Adverse events of grade 4, n (Pulmonary) [1, 5]: 1 n
Any adverse event, n (motesanib-related) [1, 5]: 7 n
Cardiac toxicity (all grade 3) [1, 5]: 0 n
Deep vein thrombosis, grade 3 (motesanib-related) [1, 5]: 0 n
Diarrhea, grade 3 (motesanib-related) [1, 5]: 0 n
Fatigue, grade 3 (motesanib-related) [1, 5]: 0 n
Febrile neutropenia, grade 4 (motesanib-related) [1, 5]: 0 n
Gallbladder toxicity [1, 5]: 0 n
Gallbladder toxicity, Grade 3 [1, 5]: 0 n
Hemorrhagic events [1, 5]: 0 n
Hemorrhagic events, Grade 3 [1, 5]: 0 n
Hypertension, highest (worst) grade: Grade 3 [1, 5]: 0 n
Nausea, grade 3 (motesanib-related) [1, 5]: 1 n
Neutropenia, grade 3 (motesanib-related) [1, 5]: 0 n
Neutropenia, grade 4 (motesanib-related) [1, 5]: 1 n
Pulmonary embolism, grade 4 (motesanib-related) [1, 5]: 0 n
Thrombophlebitis (all grade 3) [1, 5]: 0 n
Tumor necrosis, grade 3 (motesanib-related) [1, 5]: 1 n
Vomiting, grade 3 (motesanib-related) [1, 5]: 0 n
Abnormal liver function test, grade 3 (motesanib-related) [1, 6]: 0 n
Adverse events of grade 3, n (motesanib-related) [1, 6]: 3 n
Adverse events of grade 4, n (Pulmonary) [1, 6]: 0 n
Any adverse event, n (motesanib-related) [1, 6]: 7 n
Cardiac toxicity (all grade 3) [1, 6]: 0 n
Deep vein thrombosis, grade 3 (motesanib-related) [1, 6]: 0 n
Diarrhea, grade 3 (motesanib-related) [1, 6]: 2 n
Fatigue, grade 3 (motesanib-related) [1, 6]: 0 n
Febrile neutropenia, grade 4 (motesanib-related) [1, 6]: 0 n
Gallbladder toxicity, Grade 3 [1, 6]: 0 n
Hemorrhagic events, Grade 3 [1, 6]: 0 n
Hypertension, highest (worst) grade: Grade 3 [1, 6]: 0 n
Nausea, grade 3 (motesanib-related) [1, 6]: 0 n
Neutropenia, grade 3 (motesanib-related) [1, 6]: 1 n
Neutropenia, grade 4 (motesanib-related) [1, 6]: 0 n
Pulmonary embolism, grade 4 (motesanib-related) [1, 6]: 0 n
Thrombophlebitis (all grade 3) [1, 6]: 0 n
Tumor necrosis, grade 3 (motesanib-related) [1, 6]: 1 n
Vomiting, grade 3 (motesanib-related) [1, 6]: 0 n
Hemorrhagic events ([1]; motesanib 100 mg QD + erlotinib 150 mg QD, n = 7, epistaxis (grade 1)): 1^e n
Gallbladder toxicity ([1]; motesanib 100 mg QD + erlotinib 150 mg QD, n = 7, gallbladder enlargement (grade 2)): 1^c n
Abnormal liver function test, grade 3 (motesanib-related) [1, 7]: 1 n
Adverse events of grade 3, n (motesanib-related) [1, 7]: 3 n
Adverse events of grade 4, n (Pulmonary) [1, 7]: 0 n
Any adverse event, n (motesanib-related) [1, 7]: 8 n
Deep vein thrombosis, grade 3 (motesanib-related) [1, 7]: 0 n
Diarrhea, grade 3 (motesanib-related) [1, 7]: 1 n
Fatigue, grade 3 (motesanib-related) [1, 7]: 1 n
Febrile neutropenia, grade 4 (motesanib-related) [1, 7]: 0 n
Gallbladder toxicity [1, 7]: 0 n
Gallbladder toxicity, Grade 3 [1, 7]: 0 n
Hemorrhagic events [1, 7]: 0 n
Hemorrhagic events, Grade 3 [1, 7]: 0 n
Hypertension, highest (worst) grade: Grade 3 [1, 7]: 0 n
Nausea, grade 3 (motesanib-related) [1, 7]: 0 n
Neutropenia, grade 3 (motesanib-related) [1, 7]: 1 n
Neutropenia, grade 4 (motesanib-related) [1, 7]: 0 n
Pulmonary embolism, grade 4 (motesanib-related) [1, 7]: 0 n
Thrombophlebitis (all grade 3) [1, 7]: 0 n
Tumor necrosis, grade 3 (motesanib-related) [1, 7]: 0 n
Vomiting, grade 3 (motesanib-related) [1, 7]: 1 n
Cardiac toxicity (all grade 3) ([1]; motesanib 100 mg QD + gemcitabine + erlotinib 100 mg QD, n = 8, congestive heart failure and pulmonary edema): 1^f n
half-life ([2]; 100 mg, read-out: Mean estimated terminal elimination half-life (t1/2, z)): 4.8 to 8.6 h
Tmax ([2]; 100 mg, read-out: Overall median tmax): 0.6 to 2 h
Tmax ([2]; 150 mg): 2 h
half-life ([2]; 150 mg): 6 to 7.7 h
AUC(0-t) [2, 8]: 4770 ng·h/mL
concentration at 24 h [2, 8]: 37 ng/mL
Cmax [2, 8]: 655 ng/mL
AUC(0-t) [2, 9]: 3120 ng·h/mL
concentration at 24 h [2, 9]: 44.7 ng/mL
Cmax [2, 9]: 443 ng/mL
Effect of combination on motesanib pharmacokinetics [2]: not markedly affected
Target dose [3]: 125 mg QD
